Experimental data published in patent US20020026053A1, “Novel 3-(substituted) -2- indolinones compounds and use thereof as inhibitors of protein kinase activity” (priority 1997, published 2002).

Test system: FLK-1 receptor
Assay: FLK-1 Assay (cellular/catalytic ELISA, VEGF-stimulated phosphotyrosine)
Format: cell-based
Set-up: concentration or dose not given beside the values
In short: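 Receptor phosphotyrosine ELISA: Flk-1-expressing NIH3T3 C7#3 cells, starved overnight in 0.1% FBS medium, received compound (1:200 final dilution, 0.5% DMSO) for 2 h at 37 °C, then VEGF. Anti-FLK-1-captured receptor was probed with anti-phosphotyrosine UB40 and peroxidase/ABTS read-out, relative to cells without compound.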

SMILES: Cc1c(Br)ccc2c1C(=Cc1cccc(C(F)(F)F)c1)C(=O)N2 [10735/C05]
- Flk Kinase % Inhibition (P.110): 11.2%
